Here are results for 14 compounds from ChEMBL document CHEMBL5500354, “Novel selective agents for the degradation of AR/AR-V7 to treat advanced prostate cancer” (Eur J Med Chem, 2024).

Experiment [1] relates to LNCaP. In words: cells. As to conditions: Homo sapiens, 24 h, read-out: INH.
Description: Antiproliferative activity against human LNCaP cells assessed as inhibition rate at 10 uM incubated for 24 hrs by CCK8 assay relative to control
In experiment [2] the target is T1, Androgen receptor (Homo sapiens, UniProt P10275).
T1 sequence (P10275 whole entry): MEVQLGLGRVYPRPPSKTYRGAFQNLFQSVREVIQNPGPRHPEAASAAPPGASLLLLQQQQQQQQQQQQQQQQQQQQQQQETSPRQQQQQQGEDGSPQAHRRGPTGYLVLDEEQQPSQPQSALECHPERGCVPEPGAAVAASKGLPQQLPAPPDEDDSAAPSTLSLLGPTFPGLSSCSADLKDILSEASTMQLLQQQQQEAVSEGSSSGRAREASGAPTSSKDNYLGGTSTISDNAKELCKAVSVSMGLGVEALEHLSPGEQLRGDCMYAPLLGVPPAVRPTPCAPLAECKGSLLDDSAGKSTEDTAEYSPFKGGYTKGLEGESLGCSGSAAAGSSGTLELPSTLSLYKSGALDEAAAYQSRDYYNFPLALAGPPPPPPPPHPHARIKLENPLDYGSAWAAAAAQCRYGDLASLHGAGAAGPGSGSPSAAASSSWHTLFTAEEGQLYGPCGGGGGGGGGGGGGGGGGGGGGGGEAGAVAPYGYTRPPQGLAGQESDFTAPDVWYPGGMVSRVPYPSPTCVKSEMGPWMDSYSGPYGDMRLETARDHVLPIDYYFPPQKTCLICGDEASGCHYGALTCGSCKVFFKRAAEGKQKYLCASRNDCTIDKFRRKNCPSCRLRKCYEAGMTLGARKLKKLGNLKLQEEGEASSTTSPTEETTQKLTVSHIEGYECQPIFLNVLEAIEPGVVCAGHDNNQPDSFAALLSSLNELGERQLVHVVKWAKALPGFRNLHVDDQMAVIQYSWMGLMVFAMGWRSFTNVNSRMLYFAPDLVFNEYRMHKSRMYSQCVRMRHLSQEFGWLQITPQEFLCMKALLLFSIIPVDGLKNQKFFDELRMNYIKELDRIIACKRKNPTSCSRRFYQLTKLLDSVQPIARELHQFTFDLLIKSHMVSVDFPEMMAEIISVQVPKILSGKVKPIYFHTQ
Description: Antagonist activity at androgen receptor (unknown origin) transfected in HEK293T cells co-transfected with luciferase reporter gene assessed as inhibition of transcriptional activity incubated for 18 to 20 hrs by luminescence plate reader analysis

Experiment [3] relates to CWR22R. In words: cells. As to conditions: Homo sapiens, 22Rv1, 24 h, read-out: INH.
Description: Antiproliferative activity against human 22Rv1 cells assessed as inhibition rate at 10 uM incubated for 24 hrs by CCK8 assay relative to control
The target of experiment [4] is T1, Androgen receptor. In words: Binding affinity to human androgen receptor transfected in HEK293 cell membrane co-transfected with ARC1 assessed as inhibition of [3H]-methyltrienolone binding to receptor incubated for 30 mins by competitive ligand binding assay.
Experiment [5] relates to CWR22R. In words: Antiproliferative activity against human 22Rv1 cells assessed as reduction in cell viability incubated for 24 hrs by CCK8 assay. As to conditions: 22Rv1, 24 h. (In general: Formazan colour is commonly taken as a measure of viable cells.)
Experiment [6] concerns LNCaP. Put plainly: Antiproliferative activity against human LNCaP cells assessed as reduction in cell viability incubated for 24 hrs by CCK8 assay.
Experiment [7] has as its target T2, Androgen receptor (Rattus norvegicus, UniProt P15207).
T2 sequence (P15207 whole entry): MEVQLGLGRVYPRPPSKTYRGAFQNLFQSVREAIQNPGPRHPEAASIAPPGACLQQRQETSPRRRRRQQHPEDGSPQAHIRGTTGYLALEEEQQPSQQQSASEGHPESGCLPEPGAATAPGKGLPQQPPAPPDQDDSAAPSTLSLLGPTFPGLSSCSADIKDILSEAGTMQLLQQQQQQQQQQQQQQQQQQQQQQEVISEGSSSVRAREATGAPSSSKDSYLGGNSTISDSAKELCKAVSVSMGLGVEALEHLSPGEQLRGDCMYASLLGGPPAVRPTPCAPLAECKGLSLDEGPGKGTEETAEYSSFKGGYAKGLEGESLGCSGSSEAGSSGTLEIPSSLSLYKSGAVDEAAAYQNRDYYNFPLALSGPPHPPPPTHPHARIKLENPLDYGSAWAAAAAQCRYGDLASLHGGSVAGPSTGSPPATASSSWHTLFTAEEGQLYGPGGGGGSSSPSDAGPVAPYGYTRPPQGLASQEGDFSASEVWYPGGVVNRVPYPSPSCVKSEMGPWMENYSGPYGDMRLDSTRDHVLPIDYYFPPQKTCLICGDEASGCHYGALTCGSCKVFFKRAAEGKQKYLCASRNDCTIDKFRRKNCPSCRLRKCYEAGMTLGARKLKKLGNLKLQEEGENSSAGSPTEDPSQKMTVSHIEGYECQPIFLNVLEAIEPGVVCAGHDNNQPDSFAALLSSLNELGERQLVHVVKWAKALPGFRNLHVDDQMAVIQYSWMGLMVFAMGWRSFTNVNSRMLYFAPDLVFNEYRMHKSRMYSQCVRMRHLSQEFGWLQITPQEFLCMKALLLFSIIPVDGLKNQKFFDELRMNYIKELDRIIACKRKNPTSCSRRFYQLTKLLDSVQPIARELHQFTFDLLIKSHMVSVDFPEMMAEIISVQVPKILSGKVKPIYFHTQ
In words: Binding affinity to GST/His-tagged recombinant rat androgen receptor (606 to 902 residues) ligand binding domain expressed in baculovirus expression system assessed as dissociation constant by Biolayer interferometric analysis. For orientation: BLI is a label-free optical method that tracks binding on a fibre tip over time.

For the compound `N#Cc1ccc(O[C@H]2CC[C@H](NC(=O)c3cccnn3)CC2)cc1Cl`, the inhibition at 10 µM in the experiment on LNCaP [1] and with CWR22R [3] was less than 10% in each case. Besides, the IC50 on Androgen receptor [2] turned out to be 60.8 nM; at Androgen receptor [4], 1.52 nM.
`N#Cc1ccc(O[C@H]2CC[C@H](NC(=O)c3ccc(N4CCC(CN5CCN(c6ccc(/C=C/C(=O)O)cc6)CC5)CC4)nn3)CC2)cc1Cl`: the inhibition at 10 µM with LNCaP [1] was 36%; in the experiment with CWR22R [3], less than 10%.
`CCCNc1ccc(CC2CCN(c3ccc(C(=O)N[C@H]4CC[C@H](Oc5ccc(C#N)c(Cl)c5)CC4)nn3)CC2)cc1`: the inhibition at 10 µM with LNCaP [1] and in the experiment on CWR22R [3] was less than 10% each time.
As for `N#Cc1ccc(O[C@H]2CC[C@H](NC(=O)c3ccc(-c4ccc(NCCCCCF)cc4)nn3)CC2)cc1Cl`, the inhibition at 10 µM in the experiment on LNCaP [1] and with CWR22R [3] was less than 10% each time.
Take `N#Cc1ccc(O[C@H]2CC[C@H](NC(=O)c3ccc(N4CCC(CN5CCN(CC[S+]([O-])CCCC(F)(F)C(F)(F)F)CC5)CC4)nn3)CC2)cc1Cl` (stereo partly drawn): the inhibition at 10 µM in the experiment on LNCaP [1] is 13%; with CWR22R [3], less than 10%.
Turning to `N#Cc1ccc(O[C@H]2CC[C@H](NC(=O)c3ccc(N4CCC(CNC5CN(CCCF)C5)CC4)nn3)CC2)cc1Cl`, the inhibition at 10 µM with LNCaP [1] was 10%; with CWR22R [3], less than 10%. The IC50 is greater than 10000 nM on Androgen receptor [2] and 5.41 nM at Androgen receptor [4].
`N#Cc1ccc(O[C@H]2CC[C@H](NC(=O)c3ccc(N4CCC(CC5CN(CCCF)C5)CC4)nn3)CC2)cc1Cl`: the inhibition at 10 µM was 21% in the experiment on LNCaP [1] and less than 10% with CWR22R [3]. Besides, at Androgen receptor [4], the IC50 is 3.67 nM.
Consider `N#Cc1ccc(O[C@H]2CC[C@H](NC(=O)c3ccc(N4CCC(CN5CCN(CCCC(F)(F)C(F)(F)F)CC5)CC4)nn3)CC2)cc1Cl`, for which the inhibition at 10 µM in the experiment on LNCaP [1] and with CWR22R [3] was less than 10% each time. Also, the IC50 is greater than 10000 nM at Androgen receptor [2] and 12.4 nM at Androgen receptor [4].
On to `N#Cc1ccc(O[C@H]2CC[C@H](NC(=O)c3ccc(N4CCC(CN5CCN(c6ccc(NC7CN(CCCF)C7)cc6)CC5)CC4)nn3)CC2)cc1Cl`, for which the inhibition at 10 µM in the experiment with LNCaP [1] and in the experiment on CWR22R [3] was greater than 50% in each case. Also, the IC50 in the experiment on CWR22R [5] stood at 5120 nM; in the experiment with LNCaP [6], 6860 nM; on Androgen receptor [2], 394 nM; on Androgen receptor [4], 6.81 nM.
Take `N#Cc1ccc(O[C@H]2CC[C@H](NC(=O)c3ccc(N4CCC(CN5CCN(C6CN(CCCF)C6)CC5)CC4)nn3)CC2)cc1Cl`: the results for the inhibition at 10 µM with LNCaP [1] and with CWR22R [3] were 17% and 29%, respectively.
`N#Cc1ccc(O[C@H]2CC[C@H](NC(=O)c3ccc(N4CCC(Cc5ccc(NCCCF)cc5)CC4)nn3)CC2)cc1Cl`: the inhibition at 10 µM in the experiment with LNCaP [1] and in the experiment with CWR22R [3] was less than 10% each time.
For the compound `N#Cc1ccc(O[C@H]2CC[C@H](NC(=O)c3ccc(-c4ccc(NC5CN(CCCF)C5)cc4)nn3)CC2)cc1Cl`, the inhibition at 10 µM in the experiment on LNCaP [1] was 13%; in the experiment with CWR22R [3] it was 28%.
As to `N#Cc1ccc(O[C@H]2CC[C@H](NC(=O)c3ccc(N4CCC(Cc5ccc(NC6CN(CCCF)C6)cc5)CC4)nn3)CC2)cc1Cl`, the Kd at Androgen receptor [7] is 590 nM.
For the compound `N#Cc1ccc(O[C@H]2CC[C@H](NC(=O)c3ccc(N4CCC(N5CC(CF)C5)CC4)nn3)CC2)cc1Cl`, the inhibition at 10 µM was 15% in the experiment with LNCaP [1] and less than 10% with CWR22R [3].

For orientation: IC50 means the concentration needed to halve the response being measured. In general, Kd refers to the concentration at which binding is half-saturated.
